Experimental data taken from US7850984B2, “Protection of the female reproductive system from natural and artificial insults” (The General Hospital Corporation, priority 2000, dated 2010).
Entries after “also recorded” stand apart in the source; their conditions may differ.

Tests used:
[1] = system: germ cells of wild-type fetal ovaries (e13.5); assay: Fetal ovary culture without hormonal support, germ cell survival; type: cell-based, mouse
Procedure: To determine the basis of the extensive oocyte hyperplasia in ASMase −/− neonates, fetal ovaries are harvested from wild-type and mutant mice at embryonic day 13.5 (e13.5) for in vitro culture as a model to recapitulate the events surrounding germline death that occurs as a normal component of female gametogenesis. A time-dependent activation of programmed cell death is observed in the germline of wild-type fetal ovaries cultured without hormonal support for up to 72 hours (FIG. 2A). […] These findings indicate that there exists an ovarian-intrinsic cell death defect in the ASMase-deficient mouse, and point to enhanced survival of the developing germline during oogenesis as the mechanism underlying the enlarged oocyte pool seen in mutant females at birth.
Equivalent levels of in vitro germ cell survival are obtained by either ASMase gene knockout (FIG. 2A) or by S1P treatment (FIG. 2B).

[2] = system: C57BL/6J female mice; assay: Mating trials of irradiated female mice; type: in vivo, mouse
Procedure: Eight-week old C57BL/6J female mice (Jackson Laboratories) are anesthetized by intraperitoneal injection of Avertin (30 μl of a 1.25% stock solution per gram of body weight; Aldrich Chemical Co.), and dorsal incisions are made to retrieve and expose the ovaries. Five μl of vehicle (5% polyethylene glycol, 2.5% ethanol, and 0.8% Tween-80, or PET) or of a stock of 2 mM S1P (BIOMOL) prepared in PET are injected into the bursa surrounding each ovary (see Example 10). Based on an estimated bursal cavity volume of 50 μl, the final concentration of S1P following this procedure is 200 μM. The ovaries are returned to the peritoneal cavity, the incisions are sutured, and the mice are allowed to recover for a 2-h pre-treatment period. Mice are then given a single dose of 0.05 or 0.1 Gy of abdominally directed ionizing radiation, using a cesium^137 source (Shepherd Mar-I, Model 68) at a dose rate of 0.7 Gy min^−1.
To evaluate whether the acute protection of oocytes by S1P also results in long-term preservation of ovarian function and fertility, mating trials are initiated 2 months after irradiation. For these studies, 8-week old C57BL/6J female mice are given intrabursal injections of vehicle or a maximally effective dose of S1P (0.2 mM final concentration in the bursal cavity) two hours before exposure to 0.1 Gy of ionizing radiation, delivered as a single dose. […] Females, irradiated without or with S1P pre-treatment, are then mated with non-irradiated C57BL/6J males beginning 2 months post-irradiation. The F0 females are caged with adult (2-4 month old) wild type C57BL/6J males for 15 d. As a control to assure the fertility of the males, each is mated to a female of proven fertility. After delivery, pups of first time mothers are fostered while pups of subsequent litters are maintained with their natural mothers. […] The F0 female mice are bred again with a new wild type male two weeks after the pups are weaned, and the process is repeated for a total of 4 matings.
It is next examined whether preservation of ovarian function and fertility might result in propagation of genomic damage to the F2 progeny. To generate F2 offspring, F1 males and females are each bred at 2 months of age with adult (2-4 month old) wild type C57BL/6J females or males, respectively (see FIG. 6 for details).

[3] = system: F1 and F2 mice; assay: Necropsy, histology and hematology of F1 and F2 offspring; type: in vivo; settings: for HCT / HGB, Hemoglobin / MCH, Mean Corpuscular Hemoglobin / MCHC, Mean Corpuscular Hemoglobin Content / MCV, Mean Corpuscular Volume / RBC, Red Blood Cell Count / WBC, Total White Blood Cell Count: 0.1 Gy + S1P, mean, 95% confidence limit; for Pathology, gross necropsy / Pathology, histology: offspring of 0.1 Gy + S1P mothers
Procedure: When the F1 animals reach 18-20 months of age and the F2 animals reach 12-16 months of age, all mice are euthanized and subjected to gross necropsy and biochemical analysis. Organs from a subgroup of 65 randomly selected animals in the two different generations are also subjected to complete histologic analysis.
Eighteen to 20 month-old F1 mice, and 12-16 month-old F2 mice, are euthanized and gross pathology is assessed immediately upon death. In a total of 484 mice, the heart, lung, stomach, small and large intestine, liver, salivary gland, kidney, urinary bladder, brain, cervical spinal cord, muscle, bone, bone marrow, skin, pituitary, thyroid, pancreas, adrenal, lymph node, spleen, thymus, testis (males), seminal vesicle (males), prostate (males), ovary (females), and uterus (females) are evaluated. Any organ showing gross abnormalities is fixed with 10% paraformaldehyde, encased in paraffin, and stained with hematoxylin and eosin for in-depth histologic analysis. Furthermore, histology on all organs is performed on 65 randomly selected mice of different generations (F1 or F2), different genders, and different experimental treatments. From an additional 28 randomly-selected mice, blood is collected by cardiac puncture for hematologic analysis, and in 9 animals full differential counts are performed. Differential white cell counts are also performed in all mice displaying a pathological phenotype.

[4] = system: F0 oocytes; assay: DNA damage in F0 oocytes scored at diakinesis/metaphase I; type: in vivo, mouse
[5] = system: oocytes; settings: mouse oocytes cultured with S1P before doxorubicin exposure; Perez et al. (1997); cited from earlier work
[6] = system: ovaries (oocyte-containing follicles); settings: Morita et al., Nat. Med. 6 (2000); cited from earlier work
[7] = N=189, numbers in parenthesis = animals

## CCCCCCCCCCCCC/C=C/[C@@H](O)[C@@H](N)COP(=O)(O)O [S1P, sphingosine-1-phosphate]
[1]; after 72 hours of hormone deprivation, versus 0 h
  share of starting population of germ cells preserved: Over one-half of the starting population of germ cells (0 h or Time 0) is preserved
[1]; wild-type fetal ovaries, 72 hours in vitro without hormonal support, FB1 5-500 μM, S1P increasing concentrations
  germ cell survival / germ cell apoptosis in cultured fetal ovaries: the reduced incidence of germ cell apoptosis conveyed by ASMase-deficiency is recapitulated
[2]; 200 μM S1P before 0.1 Gy, fourth mating trial, P<0.001 vs. vehicle-treated irradiated females
  irradiated females remaining fertile after one year: 75%
[2]; 200 μM S1P before 0.1 Gy, mating 2 months post-irradiation, n=8
  irradiated females delivering litters, first mating trial: all
[2]; S1P-treated irradiated group (0.1 Gy), average
  litter size: 6.1±0.4 pups per mating
[2]; mothers treated or not with S1P
  frequency of rejection of pups by irradiated mothers: no increase in the frequency of rejection of pups
[2]; second generation
  phenotypic or behavioral abnormalities in F2 offspring: no gross phenotypic or behavioral abnormalities
[2]; up to 18 months of age
  phenotypic or behavioral abnormalities in F1 offspring: No phenotypic or behavioral abnormalities
[3]; first group (N=69)
  HCT: 45.4
  HGB, Hemoglobin: 14.2 g/dL
  MCH, Mean Corpuscular Hemoglobin: 15.3 pg
  MCHC, Mean Corpuscular Hemoglobin Content: 31.4 g/dL
  MCV, Mean Corpuscular Volume: 49.1 fL
  RBC, Red Blood Cell Count: 9.3e+12 L⁻¹
  WBC, Total White Blood Cell Count: 1.09e+10 L⁻¹
[3]; second group (N=189)
  HCT: 46.3
  HGB, Hemoglobin: 14.9 g/dL
  MCH, Mean Corpuscular Hemoglobin: 15.9 pg
  MCHC, Mean Corpuscular Hemoglobin Content: 30.8 g/dL
  MCV, Mean Corpuscular Volume: 49.2 fL
  RBC, Red Blood Cell Count: 9.4e+12 L⁻¹
  WBC, Total White Blood Cell Count: 1.1e+10 L⁻¹
[3]; F1 at 18-20 months, F2 at 12-16 months
  gross histologic or biochemical abnormalities in offspring: No gross histologic or biochemical abnormalities
[3]; N=69
  Pathology, gross necropsy: Enlarged uterus; also recorded: Perineal tumor
[3]; N=69, numbers in parenthesis = animals
  Pathology, histology: LI in liver (2); also recorded: LI in lung (3); also recorded: Mucometra; also recorded: Lipoma
[3]; [7]
  Pathology, gross necropsy: Dermatitis (3); also recorded: Cyst in right ovary; also recorded: Alopecia; also recorded: Traumatic injury
  Pathology, histology: LI in lung (7); also recorded: Liver (3); also recorded: Kidney; also recorded: Ovarian cyst
[4]; 0.05 Gy + S1P
  Oocytes with Breaks/Crosstalk (% of total): 16.4%
[4]; 0.05 Gy + S1P (200 μM intrabursal), 8 weeks after irradiation, n=8
  Average Oocytes/o (mean ± SEM): 30.8 ± 3.9
[4]; 0.05 Gy + S1P, of 110 total scorable oocytes
  Oocytes with Breaks/Crosstalk, number: 18
[4]; 0.1 Gy + S1P
  Oocytes with Breaks/Crosstalk (% of total): 27.6%
[4]; 0.1 Gy + S1P, of 86 total scorable oocytes
  Oocytes with Breaks/Crosstalk, number: 24
[4]; S1P-treated irradiated females
  percentage of oocyte population manifesting DNA damage versus vehicle-treated irradiated mice: no increase in the percentage of the oocyte population manifesting DNA damage
[5]
  protection of oocytes from doxorubicin-induced death in vitro: protected the oocytes from death induced by subsequent doxorubicin exposure for up to 24 hours
[6]
  protection of oocyte population from apoptotic death following radiotherapy: essentially protects the entire oocyte population from apoptotic death
